Data: ChEMBL document CHEMBL3886912, “Imidazo[4,5-c]quinolin-2-one compounds and their use in treating Cancer” (2016)

Tests used:
[1] = target: Serine-protein kinase ATM (Homo sapiens, UniProt Q13315); assay: Cellular Assay: Assay a) HT29 cells (ECACC #85061109) were seeded into 384 well assay plates (Costar #3712) at a density of 3500 cells/well in 40 μl EMEM medium containing 1% L glutamine and 10% FBS and allowed to adhere overnight. The following morning compounds of Formula (I) in 100% DMSO were added to assay plates by acoustic dispensing. After 1 h incubation at 37° C. and 5% CO2 plates (up to …; assay type: cell-based, HT-29
[2] = target: Serine/threonine-protein kinase ATR (Homo sapiens, UniProt Q13535); assay: Cellular Assay: Assay b) HT29 cells (ECACC #85061109) were seeded into 384 well assay plates (Costar #3712) at a density of 6000 cells/well in 40 μl EMEM medium containing 1% L glutamine and 10% FBS and allowed to adhere overnight. The following morning compound of Formula (I) in 100% DMSO was added to assay plates by acoustic dispensing. After 1 h incubation at 37° C. and 5% CO2, 40 nl of 3 mM 4NQO in 100% DMSO was added to all wells by acoustic dispensing, except minimum control wells which were left untreated with 4NQO to generate a null response control. Plates were returned to the incubator for a further 1 h. Then cells were fixed by adding 20 μl of 3.7% formaldehyde in PBS solution and incubating for 20 mins at r.t. Then 20 μl of 0.1% Triton X100 in PBS was added and incubated for 10 minutes at r.t., to permeabalise cells. Then the plates were washed once with 50 μl/well PBS, using a Biotek EL405 plate washer. Phospho-Chk1 Ser 345 antibody (Cell Signalling Technology #2348) was diluted 150 fold in PBS containing 0.05% polysorbate/Tween and 15 μl was added to each well and incubated over night at r.t. The next morning plates were washed three times with 50 μl/well PBS, using a Biotek EL405 plate washer, and then 20 μl of secondary Ab solution, containing 500 fold diluted Alexa Fluor 488 Goat anti-rabbit IgG (Molecular Probes #A-11008) and 0.002 mg/ml Hoeschst dye (Molecular Probes #H-3570), in PBST, was added. After 2 h incubation at r.t., the plates were washed three times with 50 μl/well PBS, using a Biotek EL405 plate washer, and plates were then sealed with black plate seals until read. Plates were read using an ArrayScan VTI instrument, using an XF53 filter with 10× objective. A two laser set up was used to analyse nuclear staining with Hoeschst (405 nm) and secondary antibody staining of pChk1 (488 nm).; assay type: cell-based, HT-29
Serine/threonine-protein kinase ATR, sequence (Q13535 whole entry): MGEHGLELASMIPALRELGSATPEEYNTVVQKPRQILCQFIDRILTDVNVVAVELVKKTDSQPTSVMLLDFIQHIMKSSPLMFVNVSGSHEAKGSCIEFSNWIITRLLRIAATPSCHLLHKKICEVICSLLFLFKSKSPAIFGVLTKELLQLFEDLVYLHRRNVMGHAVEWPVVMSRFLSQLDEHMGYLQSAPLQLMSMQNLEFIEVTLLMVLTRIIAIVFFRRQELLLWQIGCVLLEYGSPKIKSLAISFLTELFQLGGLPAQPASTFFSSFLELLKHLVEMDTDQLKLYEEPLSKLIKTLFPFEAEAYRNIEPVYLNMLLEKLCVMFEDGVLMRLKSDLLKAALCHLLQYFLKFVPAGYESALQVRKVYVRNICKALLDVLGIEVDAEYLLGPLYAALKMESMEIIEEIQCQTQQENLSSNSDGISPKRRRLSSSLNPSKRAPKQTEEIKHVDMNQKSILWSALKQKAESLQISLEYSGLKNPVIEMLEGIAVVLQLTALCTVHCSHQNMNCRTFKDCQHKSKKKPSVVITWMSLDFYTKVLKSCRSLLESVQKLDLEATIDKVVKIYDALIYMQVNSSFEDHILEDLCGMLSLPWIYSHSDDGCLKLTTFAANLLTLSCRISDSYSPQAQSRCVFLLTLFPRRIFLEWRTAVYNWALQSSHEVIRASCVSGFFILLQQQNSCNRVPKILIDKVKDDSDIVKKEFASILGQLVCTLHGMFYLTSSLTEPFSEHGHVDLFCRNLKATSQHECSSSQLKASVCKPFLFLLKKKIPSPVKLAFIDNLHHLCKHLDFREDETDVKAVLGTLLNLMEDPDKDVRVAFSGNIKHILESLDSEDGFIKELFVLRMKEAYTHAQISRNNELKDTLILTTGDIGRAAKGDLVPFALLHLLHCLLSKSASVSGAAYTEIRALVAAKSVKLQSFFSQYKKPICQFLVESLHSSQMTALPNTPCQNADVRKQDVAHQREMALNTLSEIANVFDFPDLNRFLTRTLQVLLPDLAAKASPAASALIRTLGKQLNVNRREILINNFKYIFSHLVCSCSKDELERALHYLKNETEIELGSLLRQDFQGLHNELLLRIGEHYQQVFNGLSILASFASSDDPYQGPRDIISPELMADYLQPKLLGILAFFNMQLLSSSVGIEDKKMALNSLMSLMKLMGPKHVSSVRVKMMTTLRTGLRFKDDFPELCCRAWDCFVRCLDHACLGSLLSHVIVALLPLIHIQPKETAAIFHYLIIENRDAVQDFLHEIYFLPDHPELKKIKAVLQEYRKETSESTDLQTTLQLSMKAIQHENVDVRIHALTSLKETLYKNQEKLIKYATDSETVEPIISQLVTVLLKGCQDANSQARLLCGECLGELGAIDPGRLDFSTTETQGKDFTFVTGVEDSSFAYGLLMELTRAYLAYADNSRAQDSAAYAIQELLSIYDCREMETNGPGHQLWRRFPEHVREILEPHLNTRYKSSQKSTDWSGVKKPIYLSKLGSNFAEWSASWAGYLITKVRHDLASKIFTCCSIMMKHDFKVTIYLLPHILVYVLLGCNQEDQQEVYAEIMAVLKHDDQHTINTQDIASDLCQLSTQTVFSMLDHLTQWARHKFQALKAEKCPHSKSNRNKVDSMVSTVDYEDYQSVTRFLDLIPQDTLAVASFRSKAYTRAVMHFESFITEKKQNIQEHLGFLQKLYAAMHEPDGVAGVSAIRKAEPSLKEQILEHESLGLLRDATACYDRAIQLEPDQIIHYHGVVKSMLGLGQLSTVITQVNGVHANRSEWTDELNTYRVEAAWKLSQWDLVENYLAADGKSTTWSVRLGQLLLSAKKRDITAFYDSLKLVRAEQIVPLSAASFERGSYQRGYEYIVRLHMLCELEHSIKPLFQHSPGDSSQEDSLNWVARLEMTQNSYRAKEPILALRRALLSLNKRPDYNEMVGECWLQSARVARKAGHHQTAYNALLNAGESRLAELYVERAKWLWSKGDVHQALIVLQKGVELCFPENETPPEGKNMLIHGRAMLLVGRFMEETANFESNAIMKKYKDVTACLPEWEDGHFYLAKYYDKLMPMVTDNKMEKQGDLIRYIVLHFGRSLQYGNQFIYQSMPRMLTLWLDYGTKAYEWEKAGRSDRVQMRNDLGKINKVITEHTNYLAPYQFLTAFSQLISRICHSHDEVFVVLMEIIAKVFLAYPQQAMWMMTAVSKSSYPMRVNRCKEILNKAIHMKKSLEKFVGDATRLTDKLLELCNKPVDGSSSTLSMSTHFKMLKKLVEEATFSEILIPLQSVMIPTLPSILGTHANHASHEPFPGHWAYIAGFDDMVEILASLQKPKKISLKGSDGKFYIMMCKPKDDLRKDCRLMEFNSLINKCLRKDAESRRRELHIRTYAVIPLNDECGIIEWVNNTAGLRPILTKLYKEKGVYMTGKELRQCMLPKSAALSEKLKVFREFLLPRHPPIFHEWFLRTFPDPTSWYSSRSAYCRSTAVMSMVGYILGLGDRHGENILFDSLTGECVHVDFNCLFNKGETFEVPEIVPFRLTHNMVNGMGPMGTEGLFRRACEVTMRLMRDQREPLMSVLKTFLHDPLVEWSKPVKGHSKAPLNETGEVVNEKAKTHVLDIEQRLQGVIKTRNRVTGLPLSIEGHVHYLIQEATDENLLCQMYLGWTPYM

| IC50 [1] | IC50 [2] | Compound |
| --- | --- | --- |
| 0.24 nM | > 30000 nM | CN(C)CCCOc1ccc(-c2ccc3ncc4c(c3c2)n([C@H]2C[C@@H](O)C2)c(=O)n4C)cn1 |
| 1.14 nM | > 29600 nM | CN(C)CCCOc1ccc(-c2cc3c(cc2F)ncc2c3n([C@H]3CCCOC3)c(=O)n2C)cn1 |
| 1.46 nM | > 30000 nM | CN(C)CCCOc1ccc(-c2ccc3ncc4c(c3c2)n(C2COC2)c(=O)n4C)cn1 |
| 1 nM | > 30000 nM | CN(C)CCCOc1ccc(-c2cc3c(cc2F)ncc2c3n([C@@H]3CCCOC3)c(=O)n2C)cn1 |
